Measured values: patent US20260207573A1, “EFFECT OF RIVOCERANIB ON CYTOCHROME P450 ENZYME SUBSTRATES” (ELEVAR THERAPEUTICS, INC., priority 2022, published 2026)

What was measured:
CYP3A = experiment: Example 2 phase 1 drug-drug interaction study, rivoceranib 700 mg QD + 5+1 cocktail: midazolam probe; design: AUC(0-t), Mean (CV %), 5 + 1 cocktail alone / AUC(0-t), Geometric LSM, 5 + 1 cocktail alone / AUC(0-t), Mean (CV %), Rivoceranib plus 5 + 1 cocktail / AUC(0-t), Geometric LSM, Rivoceranib plus 5 + 1 cocktail / AUC(0-∞), Mean (CV %), 5 + 1 cocktail alone / AUC(0-∞), Geometric LSM, 5 + 1 cocktail alone / AUC(0-∞), Mean (CV %), Rivoceranib plus 5 + 1 cocktail / AUC(0-∞), Geometric LSM, Rivoceranib plus 5 + 1 cocktail: unit not given beside the values; settings: for AUC(0-t) / AUC(0-inf) / Cmax: human, in vivo; for AUC(0-t), Geometrical mean Ratio, % (90% CI) / AUC(0-∞), Geometrical mean Ratio, % (90% CI) / Cmax, Geometrical mean Ratio, % (90% CI): rivoceranib 700 mg QD, 100*LSM Rivoceranib Plus 5+1 Cocktail/LSM 5+1 Cocktail Alone
Description: (§1) This example describes a pharmacokinetic interaction study in healthy human volunteers dosed with 700 mg rivoceranib and a mixture of cytochrome P450 enzyme (CYP1A2, CYP2C9, CYP2C19, CYP2D6, and CYP3A) substrates.
(§2) The primary objective of the study was to evaluate the effect of rivoceranib 700 mg once daily (QD) on the pharmacokinetics (PK) of various CYP substrates to determine drug-drug interactions of rivoceranib.
(§3) This was an open-label, 2-treatment, fixed-sequence drug-drug interaction phase 1 study designed to evaluated the impact of multiple oral doses of 700 mg rivoceranib on the single-dose PK of CYP enzyme substrates administered in a 5+1 Cooperstown probe cocktail (caffeine [CYP1A2], S- and R-warfarin [CYP2C9]+vitamin K, omeprazole [CYP2C19], dextromethorphan [CYP2D6], and midazolam [CYP3A]) in healthy volunteers (N=32). On day 1, volunteers received a single dose of the 5+1 cocktail comprising 200 mg caffeine, 10 mg S- and R-warfarin with 10 mg vitamin K, 40 mg omeprazole, 30 mg dextromethorphan, and 2 mg midazolam. Blood samples were collected pre-dose on day 1 and up to 120 hours post-dose for PK analyses of the substrates in the 5+1 cocktail. On days 6 to 15, volunteers received 700 mg rivoceranib once daily for 10 consecutive days with a single dose of the 5+1 cocktail administered on day 11. Blood samples were collected pre-dose on day 11 and up to 120 hours post cocktail dosing (day 16) for PK analyses. Each dosing was under fasted conditions. There was a washout period of 5 days between day 1 dosing and the first rivoceranib dose on day 6; the 2 cocktail dosings were spaced by 10 days.

CYP3A4/5 = experiment: Example 1 pharmacokinetic interaction study, rivoceranib 200 mg + Cooperstown 5+1 cocktail: midazolam probe; settings: for AUC(0-t), Geometric Mean Ratio, (Cooperstown Cocktail + Rivoceranib)/Cooperstown Cocktail Alone / AUC(0-∞), Geometric Mean Ratio, (Cooperstown Cocktail + Rivoceranib)/Cooperstown Cocktail Alone / Cmax, Geometric Mean Ratio, (Cooperstown Cocktail + Rivoceranib)/Cooperstown Cocktail Alone: rivoceranib 200 mg daily, D11 vs D1
CYP2D6 [1] = molecular target: T1, CYP2D6 (Homo sapiens, UniProt P10635); experiment: Example 2 phase 1 drug-drug interaction study, rivoceranib 700 mg QD + 5+1 cocktail: dextromethorphan probe; settings: for AUC(0-t) / AUC(0-inf) / Cmax: human, in vivo, healthy volunteers; for AUC(0-t), Geometrical mean Ratio, % (90% CI) / AUC(0-∞), Geometrical mean Ratio, % (90% CI) / Cmax, Geometrical mean Ratio, % (90% CI): rivoceranib 700 mg QD, 100*LSM Rivoceranib Plus 5+1 Cocktail/LSM 5+1 Cocktail Alone
Description: as §1, §2, §3

CYP2D6 [2] = molecular target: T1, CYP2D6; experiment: Example 1 pharmacokinetic interaction study, rivoceranib 200 mg + Cooperstown 5+1 cocktail: dextromethorphan probe; settings: for AUC(0-t), Geometric Mean Ratio, (Cooperstown Cocktail + Rivoceranib)/Cooperstown Cocktail Alone / AUC(0-∞), Geometric Mean Ratio, (Cooperstown Cocktail + Rivoceranib)/Cooperstown Cocktail Alone / Cmax, Geometric Mean Ratio, (Cooperstown Cocktail + Rivoceranib)/Cooperstown Cocktail Alone: rivoceranib 200 mg daily, D11 vs D1
CYP2C19 = CYP2C19 (Homo sapiens, UniProt P33261); settings: in vivo, po
[3] = Geometric LSM, Rivoceranib plus 5 + 1 cocktail, healthy volunteers, 5+1 cocktail day 11 + rivoceranib 700 mg QD days 6-15
[4] = Mean (CV %), Rivoceranib plus 5 + 1 cocktail, healthy volunteers, 5+1 cocktail day 11 + rivoceranib 700 mg QD days 6-15
[5] = po, 2 mg, Geometric LSM, 5 + 1 cocktail alone, healthy volunteers, single oral 5+1 cocktail dose day 1, fasted
[6] = po, 2 mg, Mean (CV %), 5 + 1 cocktail alone, healthy volunteers, single oral 5+1 cocktail dose day 1, fasted
[7] = rivoceranib 200 mg once daily, oral substrate
[8] = healthy volunteers, 5+1 cocktail day 11 + rivoceranib 700 mg QD days 6-15
[9] = healthy volunteers, single oral 5+1 cocktail dose day 1, fasted
[10] = Geometric LSM, Rivoceranib plus 5 + 1 cocktail, 5+1 cocktail day 11 + rivoceranib 700 mg QD days 6-15
[11] = Mean (CV %), Rivoceranib plus 5 + 1 cocktail, 5+1 cocktail day 11 + rivoceranib 700 mg QD days 6-15
[12] = po, Geometric LSM, 5 + 1 cocktail alone, single oral 5+1 cocktail dose day 1, fasted
[13] = po, Mean (CV %), 5 + 1 cocktail alone, single oral 5+1 cocktail dose day 1, fasted

Chain of CYP2C19 (P33261 whole entry): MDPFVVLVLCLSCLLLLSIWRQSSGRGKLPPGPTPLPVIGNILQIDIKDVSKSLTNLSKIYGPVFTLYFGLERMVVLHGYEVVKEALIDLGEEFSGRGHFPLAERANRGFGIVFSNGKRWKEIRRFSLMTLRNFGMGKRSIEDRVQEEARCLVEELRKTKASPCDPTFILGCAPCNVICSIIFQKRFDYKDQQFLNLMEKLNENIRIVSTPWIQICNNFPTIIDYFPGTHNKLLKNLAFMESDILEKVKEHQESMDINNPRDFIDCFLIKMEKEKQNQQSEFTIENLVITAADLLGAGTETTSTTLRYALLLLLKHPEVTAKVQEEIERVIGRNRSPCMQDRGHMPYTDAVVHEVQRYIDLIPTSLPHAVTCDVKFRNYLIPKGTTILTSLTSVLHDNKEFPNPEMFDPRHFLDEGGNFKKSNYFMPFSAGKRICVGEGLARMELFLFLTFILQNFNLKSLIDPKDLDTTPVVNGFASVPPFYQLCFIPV
T1 sequence (P10635 whole entry): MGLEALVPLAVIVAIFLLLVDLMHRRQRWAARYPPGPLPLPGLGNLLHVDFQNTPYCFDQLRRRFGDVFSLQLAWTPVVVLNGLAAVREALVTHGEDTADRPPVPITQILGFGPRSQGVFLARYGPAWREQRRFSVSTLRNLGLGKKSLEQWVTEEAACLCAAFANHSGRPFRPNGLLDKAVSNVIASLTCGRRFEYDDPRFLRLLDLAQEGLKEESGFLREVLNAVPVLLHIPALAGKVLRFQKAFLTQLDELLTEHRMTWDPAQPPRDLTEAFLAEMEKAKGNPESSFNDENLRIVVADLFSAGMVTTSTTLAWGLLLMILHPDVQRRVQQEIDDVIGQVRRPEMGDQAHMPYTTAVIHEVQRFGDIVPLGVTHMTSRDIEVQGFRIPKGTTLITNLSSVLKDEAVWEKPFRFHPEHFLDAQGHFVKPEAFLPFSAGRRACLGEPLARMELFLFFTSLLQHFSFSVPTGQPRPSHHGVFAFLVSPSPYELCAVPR

SMILES: Cc1ncc2n1-c1ccc(Cl)cc1C(c1ccccc1F)=NC2 [midazolam]
- AUC(0-t) (CYP3A; [3]): 75.2 ng·h/mL
- AUC(0-t) (CYP3A; [4]): 75.5 ng·h/mL
- AUC(0-inf) (CYP3A; [3]): 82.1 ng·h/mL
- AUC(0-inf) (CYP3A; [4]): 82.5 ng·h/mL
- Cmax (CYP3A; [3]): 25.7 ng/mL
- Cmax (CYP3A; [4]): 25.7 ng/mL
- AUC(0-t) (CYP3A; [5]): 28.1 ng·h/mL
- AUC(0-t) (CYP3A; [6]): 28.1 ng·h/mL
- AUC(0-inf) (CYP3A; [5]): 29.7 ng·h/mL
- AUC(0-inf) (CYP3A; [6]): 29.7 ng·h/mL
- Cmax (CYP3A; [5]): 10.8 ng/mL
- Cmax (CYP3A; [6]): 10.8 ng/mL
- increase in exposure following coadministration with rivoceranib (CYP3A; rivoceranib 700 mg): 2.4- to 2.8 fold
- AUC(0-t), Geometrical mean Ratio, % (90% CI) (CYP3A): 267.59%
- AUC(0-∞), Geometrical mean Ratio, % (90% CI) (CYP3A): 276.27%
- Cmax, Geometrical mean Ratio, % (90% CI) (CYP3A): 237.88%
- AUC(0-t), Geometric Mean Ratio, (Cooperstown Cocktail + Rivoceranib)/Cooperstown Cocktail Alone (CYP3A4/5): 1.5573
- AUC(0-∞), Geometric Mean Ratio, (Cooperstown Cocktail + Rivoceranib)/Cooperstown Cocktail Alone (CYP3A4/5): 1.4451
- Cmax, Geometric Mean Ratio, (Cooperstown Cocktail + Rivoceranib)/Cooperstown Cocktail Alone (CYP3A4/5): 1.1509
- increase in AUC0-∞ following coadministration with rivoceranib (CYP3A4/5; [7]): 65%
- increase in Cmax following coadministration with rivoceranib (CYP3A4/5; [7]): 16%

SMILES: OCc1ncc2n1-c1ccc(Cl)cc1C(c1ccccc1F)=NC2 [1-hydroxymidazolam]
- AUC(0-t), Geometric LSM, Rivoceranib plus 5 + 1 cocktail (CYP3A; [8]): 13.89
- AUC(0-t), Mean (CV %), Rivoceranib plus 5 + 1 cocktail (CYP3A; [8]): 14.37
- AUC(0-∞), Geometric LSM, Rivoceranib plus 5 + 1 cocktail (CYP3A; [8]): 15.16
- AUC(0-∞), Mean (CV %), Rivoceranib plus 5 + 1 cocktail (CYP3A; [8]): 15.67
- Cmax, Geometric LSM, Rivoceranib plus 5 + 1 cocktail (CYP3A; [8]): 4.639 ng/mL
- Cmax, Mean (CV %), Rivoceranib plus 5 + 1 cocktail (CYP3A; [8]): 4.797 ng/mL
- AUC(0-t), Geometric LSM, 5 + 1 cocktail alone (CYP3A; [9]): 9.643
- AUC(0-t), Mean (CV %), 5 + 1 cocktail alone (CYP3A; [9]): 9.643
- AUC(0-∞), Geometric LSM, 5 + 1 cocktail alone (CYP3A; [9]): 10.21
- AUC(0-∞), Mean (CV %), 5 + 1 cocktail alone (CYP3A; [9]): 10.18
- Cmax, Geometric LSM, 5 + 1 cocktail alone (CYP3A; [9]): 4.115 ng/mL
- Cmax, Mean (CV %), 5 + 1 cocktail alone (CYP3A; [9]): 4.115 ng/mL
- AUC(0-t), Geometrical mean Ratio, % (90% CI) (CYP3A): 144.05%
- AUC(0-∞), Geometrical mean Ratio, % (90% CI) (CYP3A): 148.48%
- Cmax, Geometrical mean Ratio, % (90% CI) (CYP3A): 112.73%
- AUC(0-t), Geometric Mean Ratio, (Cooperstown Cocktail + Rivoceranib)/Cooperstown Cocktail Alone (CYP3A4/5): 1.2627
- AUC(0-∞), Geometric Mean Ratio, (Cooperstown Cocktail + Rivoceranib)/Cooperstown Cocktail Alone (CYP3A4/5): 1.1355
- Cmax, Geometric Mean Ratio, (Cooperstown Cocktail + Rivoceranib)/Cooperstown Cocktail Alone (CYP3A4/5): 0.8913

SMILES: CN1CC[C@@]23CCCC[C@@H]2[C@@H]1Cc1ccc(O)cc13 [dextrorphan]
- AUC(0-t) (CYP2D6 [1]; [10]): 33.7 ng·h/mL
- AUC(0-t) (CYP2D6 [1]; [11]): 34.5 ng·h/mL
- AUC(0-inf) (CYP2D6 [1]; [10]): 37.1 ng·h/mL
- AUC(0-inf) (CYP2D6 [1]; [11]): 37.8 ng·h/mL
- Cmax (CYP2D6 [1]; [10]): 4.74 ng/mL
- Cmax (CYP2D6 [1]; [11]): 4.88 ng/mL
- AUC(0-t) (CYP2D6 [1]; [12]): 26.1 ng·h/mL
- AUC(0-t) (CYP2D6 [1]; [13]): 26.1 ng·h/mL
- AUC(0-inf) (CYP2D6 [1]; [12]): 27.9 ng·h/mL
- AUC(0-inf) (CYP2D6 [1]; [13]): 27.9 ng·h/mL
- Cmax (CYP2D6 [1]; [12]): 4.66 ng/mL
- Cmax (CYP2D6 [1]; [13]): 4.66 ng/mL
- AUC(0-t), Geometrical mean Ratio, % (90% CI) (CYP2D6 [1]): 129.07%
- AUC(0-∞), Geometrical mean Ratio, % (90% CI) (CYP2D6 [1]): 133.22%
- Cmax, Geometrical mean Ratio, % (90% CI) (CYP2D6 [1]): 101.70%
- AUC(0-t), Geometric Mean Ratio, (Cooperstown Cocktail + Rivoceranib)/Cooperstown Cocktail Alone (CYP2D6 [2]): 1.1509
- AUC(0-∞), Geometric Mean Ratio, (Cooperstown Cocktail + Rivoceranib)/Cooperstown Cocktail Alone (CYP2D6 [2]): 1.1104
- Cmax, Geometric Mean Ratio, (Cooperstown Cocktail + Rivoceranib)/Cooperstown Cocktail Alone (CYP2D6 [2]): 0.8950

SMILES: COc1ccc2nc([S+]([O-])Cc3ncc(CO)c(OC)c3C)[nH]c2c1 (stereo not drawn) [5-hydroxyomeprazole]
- AUC(0-t), Geometric LS Mean, Cooperstown Cocktail Alone (CYP2C19): 6.6476
- AUC(0-∞), Geometric LS Mean, Cooperstown Cocktail Alone (CYP2C19): 6.6678
- Cmax, Geometric LS Mean, Cooperstown Cocktail Alone (CYP2C19): 5.3867

SMILES: COc1ccc2c(c1)[C@]13CCCC[C@@H]1[C@H](C2)N(C)CC3 [dextromethorphan]
- AUC(0-t) (CYP2D6 [1]; [10]): 27.1 ng·h/mL
- AUC(0-t) (CYP2D6 [1]; [11]): 23.7 ng·h/mL
- AUC(0-inf) (CYP2D6 [1]; [10]): 36.2 ng·h/mL
- AUC(0-inf) (CYP2D6 [1]; [11]): 33.2 ng·h/mL
- Cmax (CYP2D6 [1]; [10]): 2.78 ng/mL
- Cmax (CYP2D6 [1]; [11]): 2.53 ng/mL
- AUC(0-t) (CYP2D6 [1]; [12]): 10.4 ng·h/mL
- AUC(0-t) (CYP2D6 [1]; [13]): 10.4 ng·h/mL
- AUC(0-inf) (CYP2D6 [1]; [12]): 13.3 ng·h/mL
- AUC(0-inf) (CYP2D6 [1]; [13]): 14 ng·h/mL
- Cmax (CYP2D6 [1]; [12]): 1.4 ng/mL
- Cmax (CYP2D6 [1]; [13]): 1.4 ng/mL
- increase in exposure with rivoceranib (CYP2D6 [1]; rivoceranib 700 mg): 2- to 2.7 fold
- AUC(0-t), Geometrical mean Ratio, % (90% CI) (CYP2D6 [1]): 259.87%
- AUC(0-∞), Geometrical mean Ratio, % (90% CI) (CYP2D6 [1]): 272.50%
- Cmax, Geometrical mean Ratio, % (90% CI) (CYP2D6 [1]): 198.80%
- AUC(0-t), Geometric Mean Ratio, (Cooperstown Cocktail + Rivoceranib)/Cooperstown Cocktail Alone (CYP2D6 [2]): 2.5448
- AUC(0-∞), Geometric Mean Ratio, (Cooperstown Cocktail + Rivoceranib)/Cooperstown Cocktail Alone (CYP2D6 [2]): 2.6650
- Cmax, Geometric Mean Ratio, (Cooperstown Cocktail + Rivoceranib)/Cooperstown Cocktail Alone (CYP2D6 [2]): 1.9039
- increase in AUC0-∞ on coadministration of rivoceranib relative to Cooperstown 5+1 cocktail only (CYP2D6 [2]; [7]): 144%
- increase in Cmax on coadministration of rivoceranib relative to Cooperstown 5+1 cocktail only (CYP2D6 [2]; [7]): 70%
